Molecules are shown by their SMILES.

Holding throughout (type): in vivo
In test [1] the test system is Green Peach Aphid (GPA) (Myzus persicae). Description: Bioassay on green peach aphid (GPA), foliar spray on cabbage seedlings. To be noted: green peach aphid, 200 ppm, read-out: % Mortality GPA 200 ppm. On the procedure:
Certain molecules disclosed in this document were tested against GPA using procedures described in the following example. In the reporting of the results, the “GPA Rating Table” was used (See Table Section).
Cabbage seedlings grown in 3-inch pots, with 2-3 small (3-5 cm) true leaves, were used as test substrate. The seedlings were infested with 20-50 GPA (wingless adult and nymph stages) one day prior to chemical application. Four pots with individual seedlings were used for each treatment. Test compounds (2 mg) were dissolved in 2 mL of acetone/methanol (1:1) solvent, forming stock solutions of 1000 ppm test compound. […] A hand-held aspirator-type sprayer was used for spraying a solution to both sides of […] leaves until runoff. Reference plants (solvent check) were sprayed with the diluent only containing 20% by volume of acetone/methanol (1:1) solvent. Treated plants were held in a holding room for three days at approximately 25° C. and ambient relative humidity (RH) prior to grading. Evaluation was conducted by counting the number of live aphids per plant under a microscope. […] Corrected % Control=100*(X−Y)/X • where • X=No. of live aphids on solvent check plants and • Y=No. of live aphids on treated plants
The results are indicated in the table entitled “Table 5: Biological Results” (See Table Section).

For test [2], the system named is Beet Armyworm (BAW) (Spodoptera exigua). The test can be described thus: Bioassay on beet armyworm (BAW), 128-well diet tray assay. To be noted: Spodoptera exigua; beet armyworm, 50 μg/cm^2; read-out: % Mortality BAW 50 μg/cm^2.
Test [3] relates to Corn Earworm (CEW) (Helicoverpa zea). Description: Bioassay on corn earworm (CEW), 128-well diet tray assay. The following applies: Helicoverpa zea; corn earworm, 50 μg/cm^2; read-out: % Mortality CEW 50 μg/cm^2. Summed up: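 Larvae in a 128-well diet tray were held at 25° C under 14:10 light-dark for five to seven days. Percent mortality was scored per well and averaged over eight wells, then reported on a rating scale.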

Regarding `CCOCC(=O)OCS/C(=N\c1c(C)cccc1C)N/N=C/c1ccc(-c2ncn(-c3ccc(OC(F)(F)F)cc3)n2)cc1` [Compound 22C], the mortality at 200 ppm in test [1] fell in the range of 0 to 80%. The mortality at 50 µg/cm2 in test [2] and in test [3] was 50 to 100% each time.
`CC1S/C(=N\N=C\c2ccc(-c3ncn(-c4ccc(OC(F)(F)F)cc4)n3)cc2)N(c2c(F)cccc2F)C1=O` (stereo not drawn) [Compound 131C]: the mortality at 200 ppm in test [1] was found to be 0%. Also, the mortality at 50 µg/cm2 in test [2] and in test [3] was 50 to 100% throughout.
For the compound `Cc1cccc(C)c1/N=C(/N/N=C/c1ccc(-c2ncn(-c3ccc(OC(F)(F)F)cc3)n2)cc1)SCc1ccccc1F` [Compound 11C], in test [1], the mortality at 200 ppm was determined as 0%. Moreover, the mortality at 50 µg/cm2 in test [2] and in test [3] was 50 to 100% throughout.
Regarding `CC(C)c1ccccc1N1/C(=N/N=C/c2ccc(-c3ncn(-c4ccc(OC(F)(F)C(F)(F)F)cc4)n3)cc2)SCC1(C)O` (stereo not drawn) [Compound 262C], the mortality at 200 ppm in test [1] was in the range of 0 to 80%. Further, the mortality at 50 µg/cm2 in test [2] and in test [3] was 50 to 100% in each case.
Turning to `Cc1cccc(C)c1/N=C(/N/N=C/c1ccc(-c2ncn(-c3ccc(OC(F)(F)C(F)(F)F)cc3)n2)cc1)SCC(=O)O` [Compound 49C], the mortality at 200 ppm in test [1] lay in the range of 0 to 80%. Further, the mortality at 50 µg/cm2 in test [2] and in test [3] was 50 to 100% throughout.
As for `CC(C)c1ccccc1N1/C(=N/N=C/c2ccc(-c3ncn(-c4ccc(OC(F)(F)F)cc4)n3)cc2)SCC1(O)c1ccccc1C(F)(F)F` (stereo not drawn) [Compound 263C], the mortality at 200 ppm in test [1] lay within 0 to 80%. Further, the mortality at 50 µg/cm2 in test [2] and in test [3] was 50 to 100% in each case.
As to `Cc1cccc(C)c1N1CCS/C1=N\N=C\c1ccc(-c2ncn(-c3ccc(OC(F)(F)F)cc3)n2)cc1` [Compound 142C], the mortality at 200 ppm in test [1] came to 0%. In addition, the mortality at 50 µg/cm2 in test [2] and in test [3] was 50 to 100% throughout.
As to `COc1ccc(C(C)/N=C(/N/N=C/c2ccc(-c3ncn(-c4ccc(OC(F)(F)F)cc4)n3)cc2)SCC(=O)O)cc1F` (stereo not drawn) [Compound 53C], the mortality at 200 ppm in test [1] is 0 to 80%. Besides, the mortality at 50 µg/cm2 in test [2] was 0 to 50%; in test [3] it was 0%.
Regarding `COc1cc(C)c(-n2c(C(=O)O)cs/c2=N\N=Cc2ccc(-c3ncn(-c4ccc(OC(F)(F)F)cc4)n3)cc2)c(C)c1` [Compound 80C], the mortality at 200 ppm in test [1] came out at 0%. Moreover, the mortality at 50 µg/cm2 in test [2] and in test [3] was 50 to 100% throughout.
`COc1ccccc1N1CCCS/C1=N\N=C\c1ccc(-c2ncn(-c3ccc(OC(F)(F)F)cc3)n2)cc1` [Compound 191C]: in test [1], the mortality at 200 ppm is 0%. Further, the mortality at 50 µg/cm2 in test [2] and in test [3] was 50 to 100% in each case.
For `CC(C)=Cc1ccccc1N1CCS/C1=N\N=C\c1ccc(-c2ncn(-c3ccc(OC(F)(F)F)cc3)n2)cc1` [Compound 151C], the mortality at 200 ppm in test [1] is 0 to 80%. Further, the mortality at 50 µg/cm2 in test [2] and in test [3] was 50 to 100% in each case.
Turning to `Cc1cccc(C)c1/N=C(/N/N=C/c1ccc(-c2ncn(-c3ccc(OC(F)(F)F)cc3)n2)cc1)SCc1ccc(S(N)(=O)=O)cc1` [Compound 13C], the mortality at 200 ppm in test [1] is 0 to 80%. Also, the mortality at 50 µg/cm2 in test [2] and in test [3] was 50 to 100% each time.
Consider `CCOCC(=O)OCS/C(=N\c1c(C)cc(OC)cc1C)N/N=C/c1ccc(-c2ncn(-c3ccc(OC(F)(F)F)cc3)n2)cc1` [Compound 29C], for which the mortality at 200 ppm in test [1] fell in the range of 0 to 80%. Also, the mortality at 50 µg/cm2 in test [2] and in test [3] was 50 to 100% each time.
As for `Cc1cccc(C)c1/N=C1\SCC(=O)N1/N=C/c1ccc(-c2ncn(-c3ccc(OC(F)(F)F)cc3)n2)cc1` [Compound 81C], the mortality at 200 ppm in test [1] is 0%. Further, the mortality at 50 µg/cm2 in test [2] and in test [3] was 50 to 100% in each case.
For `Cc1ccc(C(C)C)c(N2/C(=N/N=C/c3ccc(-c4ncn(-c5ccc(OC(F)(F)F)cc5)n4)cc3)SCC2(C)O)c1` (stereo not drawn) [Compound 253C], in test [1], the mortality at 200 ppm came out at 0%. The mortality at 50 µg/cm2 in test [2] and in test [3] was 50 to 100% in each case.
Consider `CC(C)c1ccccc1N1CCS/C1=N\N=C\c1ccc(-c2ncn(-c3ccc(OC(F)(F)F)cc3)n2)cc1` [Compound 132C], for which the mortality at 200 ppm in test [1] lay within 0 to 80%. Moreover, the mortality at 50 µg/cm2 in test [2] and in test [3] was 50 to 100% in each case.
Consider `COc1ccc(C(C)/N=C(/N/N=C/c2ccc(-c3ncn(-c4ccc(OC(F)(F)F)cc4)n3)cc2)SCC(=O)O)cc1` (stereo not drawn) [Compound 52C], for which, in test [1], the mortality at 200 ppm lay in the range of 0 to 80%. Besides, the results for the mortality at 50 µg/cm2 in test [2] and in test [3] were 0 to 50% and 0%, respectively.
Consider `CC(C)c1ccccc1N1/C(=N/N=C/c2ccc(-c3ncn(-c4ccc(OC(F)(F)F)cc4)n3)cc2)SCC1(C)O` (stereo not drawn) [Compound 242C], for which the mortality at 200 ppm in test [1] fell in the range of 0 to 80%. Moreover, the mortality at 50 µg/cm2 in test [2] and in test [3] was 50 to 100% throughout.
Take `COc1cc(C)c(/N=C(\N/N=C/c2ccc(-c3ncn(-c4ccc(C(F)(F)F)cc4)n3)cc2)SCOC(=O)C(C)C)c(C)c1` [Compound 46C]: the mortality at 200 ppm in test [1] stood at 0%. The mortality at 50 µg/cm2 in test [2] and in test [3] was 50 to 100% throughout.
For the compound `Cc1cccc(C)c1N1C(=O)CS/C1=N\N=C\c1ccc(-c2ncn(-c3ccc(OC(F)(F)F)cc3)n2)cc1` [Compound 71C], the mortality at 200 ppm in test [1] worked out at 0%. The mortality at 50 µg/cm2 in test [2] and in test [3] was 50 to 100% each time.
Turning to `Cc1cccc(C)c1/N=C(/N/N=C/c1ccc(-c2ncn(-c3ccc(OC(F)(F)F)cc3)n2)cc1)SCc1ccc(C(F)(F)F)o1` [Compound 16C], in test [1], the mortality at 200 ppm turned out to be 0%. The mortality at 50 µg/cm2 in test [2] and in test [3] was 50 to 100% each time.
For `Cc1cccc(C)c1N1CCCCS/C1=N\N=C\c1ccc(-c2ncn(-c3ccc(OC(F)(F)F)cc3)n2)cc1` [Compound 211C], the mortality at 200 ppm in test [1] was 0%. The mortality at 50 µg/cm2 in test [2] and in test [3] was 50 to 100% each time.
As to `CCc1cccc(C)c1N1CCS/C1=N\N=C\c1ccc(-c2ncn(-c3ccc(OC(F)(F)F)cc3)n2)cc1` [Compound 136C], in test [1], the mortality at 200 ppm is 0%. Moreover, the mortality at 50 µg/cm2 in test [2] and in test [3] was 50 to 100% in each case.
Turning to `COc1ccc(C)cc1N1CCCS/C1=N\N=C\c1ccc(-c2ncn(-c3ccc(OC(F)(F)F)cc3)n2)cc1` [Compound 204C], the mortality at 200 ppm in test [1] was in the range of 0 to 80%. The mortality at 50 µg/cm2 in test [2] and in test [3] was 50 to 100% in each case.
`COc1cc(C)c(/N=C(/N/N=C/c2ccc(-c3ncn(-c4ccc(OC(F)(F)F)cc4)n3)cc2)SCC(=O)NCCCN)c(C)c1` [Compound 64C]: the mortality at 200 ppm in test [1] is 0%. Moreover, the mortality at 50 µg/cm2 in test [2] and in test [3] was 50 to 100% each time.
Turning to `O=C1CS/C(=N\N=C\c2ccc(-c3ncn(-c4ccc(OC(F)(F)F)cc4)n3)cc2)N1c1c(F)cccc1Cl` [Compound 95C], the mortality at 200 ppm in test [1] lay in the range of 0 to 80%. The mortality at 50 µg/cm2 in test [2] and in test [3] was 50 to 100% each time.
Regarding `Cc1cccc(C)c1-n1c(-c2ccc(C(=O)O)cc2)cs/c1=N\N=Cc1ccc(-c2ncn(-c3ccc(OC(F)(F)F)cc3)n2)cc1` [Compound 77C], in test [1], the mortality at 200 ppm was in the range of 0 to 80%. The mortality at 50 µg/cm2 in test [2] and in test [3] was 50 to 100% throughout.
In the case of `Cc1cccnc1N1C(=O)CS/C1=N\N=C\c1ccc(-c2ncn(-c3ccc(OC(F)(F)F)cc3)n2)cc1` [Compound 117C], in test [1], the mortality at 200 ppm came to 0%. In addition, the mortality at 50 µg/cm2 in test [2] and in test [3] was 50 to 100% in each case.
Consider `CCc1ccccc1N1C(=O)CS/C1=N\N=C\c1ccc(-c2ncn(-c3ccc(OC(F)(F)F)cc3)n2)cc1` [Compound 94C], for which, in test [1], the mortality at 200 ppm was 0%. Besides, the mortality at 50 µg/cm2 in test [2] and in test [3] was 50 to 100% throughout.
In the case of `Cc1cccc(C)c1/N=C(/N/N=C/c1ccc(-c2ncn(-c3ccc(OC(F)(F)F)cc3)n2)cc1)SCOC(=O)C(C)(C)C` [Compound 36C], the mortality at 200 ppm in test [1] stood at 0%. The mortality at 50 µg/cm2 in test [2] and in test [3] was 50 to 100% throughout.
Turning to `Cc1cccc(C)c1/N=C(/N/N=C/c1ccc(-c2ncn(-c3ccc(OC(F)(F)F)cc3)n2)cc1)SCC(=O)NCC(NC(=O)OC(C)(C)C)C(=O)O` (stereo not drawn) [Compound 59C], in test [1], the mortality at 200 ppm was 0 to 80%. In addition, the mortality at 50 µg/cm2 in test [2] and in test [3] was 50 to 100% throughout.
With `Cc1cc(Br)cc(C)c1N1CCCS/C1=N\N=C\c1ccc(-c2ncn(-c3ccc(OC(F)(F)F)cc3)n2)cc1` [Compound 203C], the mortality at 200 ppm in test [1] is 0 to 80%. Also, the mortality at 50 µg/cm2 in test [2] and in test [3] was 50 to 100% each time.
For the compound `COc1cc(Cl)c(/N=C(/N/N=C/c2ccc(-c3ncn(-c4ccc(OC(F)(F)F)cc4)n3)cc2)SCOC(=O)OC(C)C)c(Cl)c1` [Compound 33C], the mortality at 200 ppm in test [1] lay in the range of 0 to 80%. For the same compound, the mortality at 50 µg/cm2 in test [2] and in test [3] was 50 to 100% in each case.

Values taken from patent US8916183B2, “Pesticidal compositions and processes related thereto” (priority 2012, dated 2014).
